Patent US10092548B2, “Pharmaceutical compositions for preventing or treating angiogenic diseases comprising inhibitors of NUP153 gene expression or NUP153 activity as active ingredient” (INDUSTRY-ACADEMIC COOPERATION FOUNDATION, YONSEI UNIVERSITY, priority 2013, dated 2018)

Tests used:
VEGF mRNA = VEGF mRNA level in treated zebrafish embryos by RT-PCR; assay type: in vivo; settings: compared with DMSO-treated controls
Method: (§1) Zebrafish were maintained on 14 hours light/dark cycle at 28° C. All experiments involving zebrafish were performed according to the National Institute of Health guidelines. Embryos were collected and raised in Ringer's solution according to standard protocol (Westerfield, 1995). Zebrafish were injected in Ringer's solution at the one-cell stage with morpholino oligonucleotides (MO). MO was obtained from Gene Tools (Philomath, Oreg.) with the following sequence to block 5′ translation of NUP153: 5′-[…]-3′ (SEQ ID NO:2) and splicing of NUP153: 5′-[…]-3′ (SEQ ID NO:3), respectively. DMSO and OMe-Syn stock solution (10 mM in DMSO) were dissolved in ringer's solution to appropriate concentrations. […] Embryos were added to the solutions at one cell stage. Tricaine supplied in Ringer's solution (0.6%, w/v) was used to anesthetize the embryos for imaging. Microscopy images of zebrafish were taken with Fluoview FV1000, Olympus.
(§2) The present inventors previously reported that OMe-Syn, an anti-angiogenic small molecule, inhibited VEGF-induced angiogenesis in vitro and in vivo (Kim et al., Biochem. Biophys. Res. Commun 399, 20-23 (2010)). The anti-angiogenic activity of OMe-Syn was further investigated using fli1a:EGFP transgenic zebrafish, a well-established model organism for studying angiogenesis through visualization of blood vessel development.

NPC = experiment: Preliminary investigation of NPC integrity under OMe-Syn treatment
[1] = test system: intersegmental vessel (ISV) angiogenesis of zebrafish embryos; experiment: ISV angiogenesis in fli1a:EGFP transgenic zebrafish embryos; assay type: in vivo; settings: 30 hpf
Method: as §1, §2
The present inventors further examined the function of NUP153 in vivo in intersegmental vessel (ISV) angiogenesis of zebrafish embryos using a morpholino oligonucleotide (MO) specific to NUP153. NUP153-specific MOs that block the splicing (n=31) or translation (n=28) of NUP153 were injected into fli1a:EGFP transgenic embryos at the one-cell stage. The blocking of NUP153 splicing was monitored by reverse transcription-polymerase chain reaction (RT-PCR) (FIG. 6A).

[2] = test system: vascular endothelial growth factor (VEGF)-induced angiogenesis; settings: in vitro and in vivo; Kim et al., 2010; cited from earlier work
NUP153-expressing phage = biological target: T1, NUP153-expressing phage (Homo sapiens, UniProt P49790); experiment: Phage binding and phage competition assay
T1 construct: host or cells: T7 phage clone isolated from human cDNA libraries (colon tumor, lung tumor, heart)
T1 sequence (P49790 245-326): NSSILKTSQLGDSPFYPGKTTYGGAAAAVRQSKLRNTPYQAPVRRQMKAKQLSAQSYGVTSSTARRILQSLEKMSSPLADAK

[3] = biological target: T2, purified N-terminal partial domain of NUP153 (Homo sapiens, UniProt P49790); experiment: Surface plasmon resonance (SPR) analysis, BIAcore 2000; assay type: binding
T2 construct: a PCR-amplified N-terminus (amino acids 235-326) cDNA of NUP153 (NM_005124); inferred from the pET-28a vector and Ni-NTA purification; made in house; host or cells: Rosetta (DE3) E. coli
T2 sequence (P49790 235-326): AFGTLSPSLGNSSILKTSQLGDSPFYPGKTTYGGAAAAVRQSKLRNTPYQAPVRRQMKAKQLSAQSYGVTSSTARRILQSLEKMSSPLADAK
Source text: To obtain the recombinant NUP153 protein from bacteria, a PCR-amplified N-terminus (amino acids 235-326) cDNA of NUP153 (NM_005124) was into the EcoRI/SalI site of pET-28a expression vector (Novagen, Billerica, Mass.). Rosetta™ (DE3) E. coli strains were transformed with the plasmid and N-terminus partial domain of NUP153 protein was purified using Ni-NTA agarose bead (Quiagen, Hilden, Germany). Bead bound protein was eluted with elution buffer containing high concentration of imidazole according to the manufacturer's instructions.
Biotin and biotinylated OMe-Syn were sequentially immobilized on the surface of a streptavidin-coated sensor chip. Molecular interaction analysis was performed using the BIAcore 2000 (BIAcore AB) as described previously (Shim et al., Chem. Biol 11, 1455-1463 (2004)). The SPR response curves were analyzed with BIAcore Evaluations software, version 3.1. The apparent association and dissociation constants were calculated from the kinetic constants equations: KA=ka/kd, KD=kd/ka
To examine the binding affinity of OMe-Syn to NUP153, the N-terminal partial domain of NUP153, which corresponds to phage coding sequences (FIG. 2E), was cloned and expressed in Escherichia coli. The cloning and purification of recombinant NUP153 is described in the experimental procedures. […]

[4] = test system: retinal neovascularization; experiment: Oxygen-induced retinopathy (OIR), counting vascular lumens; assay type: in vivo, C57BL/6 mice; settings: mice, 20 μM in 1 μL PBS intravitreously on P14, read at P17, compared to control group
Source text: OIR was induced as described by Smith et al. (Smith et al., Invest. Ophthalmol. Vis. Sci 35, 101-111 (1994)) with some modifications (Zhang et al., Diabetologia 44, 757-765 (2001)). Briefly, newborn mice were arbitrarily assigned to experimental and control groups. At postnatal day 7 (P7), pups (8-10 pups) in the experimental group were exposed to hyperoxia (75±0.5% 02) for 5 days (P7-P12) and then returned to normoxia (room air) for 6 days. Neovascularization occurs upon return to normoxia and peaks at P17. To assess the anti-angiogenic activity of OMe-Syn, the pups were injected intravitreously with 20 μM OMe-Syn in 1 μL PBS on P14, when maximum retinal neovascularization began.
At P17, the eyes were removed, fixed in 4% paraformaldehyde in 0.1 M phosphate buffer for 24 hours, and embedded in paraffin. Sagittal sections of 5 μm, each 30 μm apart, were cut through the cornea parallel to the optic nerve. The sections were stained with hematoxylin and eosin to assess retinal vasculature via light microscopy (Carl Zeiss, Chester, Va., USA). Any vascular lumens on the vitreal side of the inner limiting membrane were counted in at least 10 sections from each eye by two independent observers blind to treatment. The average intravitreal vessels/section was calculated for each group. There were at least six animals in each group.

With `CNC[C@H](OC)c1ccc(O)cc1` [OMe-Syn, R-(−)-β-O-Methylsynephrine] the “VEGF mRNA level” value (VEGF mRNA) was “reduced”, the “NPC integrity and NPC protein interactions” value (NPC) was “leaves the NPC intact and does not disrupt NPC protein interactions” and the “viability / toxicity of embryos” value [1] was “without compromising the viability”. The “number of complete intersegmental vessels (ISVs) and angiogenic sprouts” value ([1]; OMe-Syn 2.5 and 5 μM, 5′-MO 8 ng, sp-MO 12 ng) was “decreased number of complete intersegmental vessels (ISVs) in a dose-dependent manner”, the “inhibition of VEGF-induced angiogenesis” value [2] was “inhibit vascular endothelial growth factor (VEGF)-induced angiogenesis in vitro and in vivo” and the “binding of NUP153-expressing phage to immobilized compound” value (NUP153-expressing phage; phage binding assay, versus biotin) was “specifically bound to OMe-Syn”. The “phage competition: binding of phage to immobilized OMe-Syn after pre-incubation” value (NUP153-expressing phage; pre-incubation with OMe-Syn 50, 100 μM for 1 hour) was “blocked the binding of the phage to immobilized OMe-Syn in a dose-dependent manner”, the Kd [3] was 2.4 nM and the “SPR binding of purified NUP153 to immobilized compound” value ([3]; compound immobilized on sensor chip, purified NUP153 20 μM) was “specifically bound”. The “number of vascular lumens (retinal neovascularization)” value [4] was “effectively reduced number of vascular lumens”.
